This note sets out measurements from ChEMBL document CHEMBL1743201, “Casarett and Doull's Toxicology The Basic Science of Poisons, 7th edition” (2008).

Common to all, as to format: ADME
Data set [1] deals with T1, Nuclear receptor subfamily 1 group I member 3 (Homo sapiens, UniProt Q14994).
T1 sequence (Q14994 whole entry): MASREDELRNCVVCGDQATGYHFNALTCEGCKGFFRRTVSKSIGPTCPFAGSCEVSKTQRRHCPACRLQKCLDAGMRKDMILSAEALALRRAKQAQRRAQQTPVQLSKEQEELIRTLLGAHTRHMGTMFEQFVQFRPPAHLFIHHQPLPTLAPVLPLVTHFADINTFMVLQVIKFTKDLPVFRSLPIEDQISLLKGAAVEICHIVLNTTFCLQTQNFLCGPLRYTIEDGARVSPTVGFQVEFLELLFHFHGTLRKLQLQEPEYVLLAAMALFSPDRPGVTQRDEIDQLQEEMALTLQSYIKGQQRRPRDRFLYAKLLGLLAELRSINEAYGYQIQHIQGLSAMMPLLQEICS
The data set can be described thus: (§1) Constitutive androstane receptor indirect activator.

The target of data set [2] is T2, Nuclear receptor subfamily 1 group I member 3 (Mus musculus, UniProt O35627).
T2 sequence (O35627 whole entry): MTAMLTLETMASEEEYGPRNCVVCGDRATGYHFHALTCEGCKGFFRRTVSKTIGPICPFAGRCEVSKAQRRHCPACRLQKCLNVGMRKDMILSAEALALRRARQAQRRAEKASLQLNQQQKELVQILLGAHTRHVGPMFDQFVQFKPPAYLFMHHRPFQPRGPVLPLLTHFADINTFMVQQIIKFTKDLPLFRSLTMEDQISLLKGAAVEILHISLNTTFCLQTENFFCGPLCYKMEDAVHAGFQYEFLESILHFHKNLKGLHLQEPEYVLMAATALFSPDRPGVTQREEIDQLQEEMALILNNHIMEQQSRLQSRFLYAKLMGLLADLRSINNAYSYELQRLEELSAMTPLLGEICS
The description is as §1.

For the next data set, the target named is T3, Cytochrome P450 2B6 (Homo sapiens, UniProt P20813).
T3 sequence (P20813 whole entry): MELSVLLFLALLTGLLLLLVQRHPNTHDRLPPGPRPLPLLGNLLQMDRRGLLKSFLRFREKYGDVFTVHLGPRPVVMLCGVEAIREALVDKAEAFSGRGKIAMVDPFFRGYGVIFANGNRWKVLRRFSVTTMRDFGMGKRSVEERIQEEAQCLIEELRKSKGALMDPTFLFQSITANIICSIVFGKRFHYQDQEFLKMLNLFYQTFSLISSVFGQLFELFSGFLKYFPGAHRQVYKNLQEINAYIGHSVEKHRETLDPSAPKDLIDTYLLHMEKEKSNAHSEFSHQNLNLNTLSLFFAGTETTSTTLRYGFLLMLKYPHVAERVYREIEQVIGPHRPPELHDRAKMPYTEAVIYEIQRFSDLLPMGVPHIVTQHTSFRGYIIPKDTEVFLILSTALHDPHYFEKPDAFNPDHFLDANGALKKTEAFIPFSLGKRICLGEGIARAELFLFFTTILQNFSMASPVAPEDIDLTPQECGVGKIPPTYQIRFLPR
The data set can be described thus: Clinically relevant inducers of human liver microsomal P450 enzymes, isoform CYP2B6. Conditions: microsomes. (Microsomes from liver hold many membrane-bound enzymes, among them those of drug oxidation.)

A further data set deals with T4, Cytochrome P450 2C8 (Homo sapiens, UniProt P10632).
T4 sequence (P10632 whole entry): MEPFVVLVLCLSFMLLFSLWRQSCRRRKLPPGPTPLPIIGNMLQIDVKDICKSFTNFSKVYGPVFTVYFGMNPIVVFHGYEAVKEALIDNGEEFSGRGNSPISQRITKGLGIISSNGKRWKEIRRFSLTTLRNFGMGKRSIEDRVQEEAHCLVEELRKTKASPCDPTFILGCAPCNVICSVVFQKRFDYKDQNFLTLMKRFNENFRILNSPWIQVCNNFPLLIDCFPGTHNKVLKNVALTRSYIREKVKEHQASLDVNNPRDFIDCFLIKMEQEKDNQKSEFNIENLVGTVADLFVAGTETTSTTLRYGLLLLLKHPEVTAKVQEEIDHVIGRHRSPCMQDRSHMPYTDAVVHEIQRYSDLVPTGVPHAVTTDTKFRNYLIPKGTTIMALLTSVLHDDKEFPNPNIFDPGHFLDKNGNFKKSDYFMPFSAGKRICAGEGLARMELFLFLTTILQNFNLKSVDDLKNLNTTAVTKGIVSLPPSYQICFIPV
The data set can be described thus: Clinically relevant inducers of human liver microsomal P450 enzymes, isoform CYP2C8. Conditions: microsomes.

In the next data set the target is Cytochrome P450 2C9 (Homo sapiens, UniProt P11712). As to the kind of experiment: Clinically relevant inducers of human liver microsomal P450 enzymes, isoform CYP2C9. Conditions: microsomes.
A further data set has as its target Cytochrome P450 2C19 (Homo sapiens, UniProt P33261). As to the kind of experiment: Clinically relevant inducers of human liver microsomal P450 enzymes, isoform CYP2C19. Particulars: microsomes.
Data set [3] has as its target T5, Glutathione S-transferase Mu 2 (Homo sapiens, UniProt P28161).
T5 sequence (P28161 whole entry): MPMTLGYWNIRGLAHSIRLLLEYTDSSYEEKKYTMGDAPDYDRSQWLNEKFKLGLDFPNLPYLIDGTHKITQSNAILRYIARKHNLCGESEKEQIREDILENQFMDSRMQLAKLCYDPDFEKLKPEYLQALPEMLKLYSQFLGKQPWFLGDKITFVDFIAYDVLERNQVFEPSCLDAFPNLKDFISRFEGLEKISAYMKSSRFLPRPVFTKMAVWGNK
The data set can be described thus: Substrates for human cytosolic glutathione transferase GSTM2.

In data set [4] the target is Glutathione S-transferase Mu 3 (Homo sapiens, UniProt P21266). The data set can be described thus: Substrates for human cytosolic glutathione transferase GSTM3.
Data set [5] has as its target Hematopoietic prostaglandin D synthase (Homo sapiens, UniProt O60760). As to the kind of experiment: Substrates for human cytosolic glutathione transferase PGDS.
The next data set deals with Prostaglandin E synthase (Homo sapiens, UniProt O14684). As to the kind of experiment: Substrates for human microsomal glutathione transferase PTGEs.
Sequence of Prostaglandin E synthase (O14684 whole entry): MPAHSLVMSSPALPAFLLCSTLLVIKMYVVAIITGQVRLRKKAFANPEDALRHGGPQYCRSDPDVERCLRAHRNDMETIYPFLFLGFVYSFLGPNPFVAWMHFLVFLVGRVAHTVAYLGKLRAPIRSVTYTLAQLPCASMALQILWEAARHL

Sequence of Hematopoietic prostaglandin D synthase (O60760 whole entry): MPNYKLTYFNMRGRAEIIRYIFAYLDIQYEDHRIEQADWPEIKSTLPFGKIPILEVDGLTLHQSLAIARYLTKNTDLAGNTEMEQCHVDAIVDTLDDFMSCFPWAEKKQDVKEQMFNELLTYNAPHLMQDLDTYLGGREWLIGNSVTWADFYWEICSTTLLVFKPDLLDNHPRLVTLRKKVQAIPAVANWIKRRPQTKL
Sequence of Cytochrome P450 2C9 (P11712 whole entry, canonical isoform): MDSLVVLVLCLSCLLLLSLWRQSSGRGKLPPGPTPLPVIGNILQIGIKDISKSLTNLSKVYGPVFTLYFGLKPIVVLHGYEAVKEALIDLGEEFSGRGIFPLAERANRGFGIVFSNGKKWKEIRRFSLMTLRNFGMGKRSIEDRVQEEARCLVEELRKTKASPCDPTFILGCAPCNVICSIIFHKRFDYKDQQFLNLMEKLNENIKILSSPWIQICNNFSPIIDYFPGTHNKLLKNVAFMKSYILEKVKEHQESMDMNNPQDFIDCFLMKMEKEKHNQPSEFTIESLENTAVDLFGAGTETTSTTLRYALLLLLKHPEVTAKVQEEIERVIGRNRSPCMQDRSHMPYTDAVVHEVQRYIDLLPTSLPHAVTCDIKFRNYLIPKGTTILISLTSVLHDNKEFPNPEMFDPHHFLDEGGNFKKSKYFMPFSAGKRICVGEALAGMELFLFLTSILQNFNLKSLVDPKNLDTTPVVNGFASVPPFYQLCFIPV
Sequence of Glutathione S-transferase Mu 3 (P21266 whole entry): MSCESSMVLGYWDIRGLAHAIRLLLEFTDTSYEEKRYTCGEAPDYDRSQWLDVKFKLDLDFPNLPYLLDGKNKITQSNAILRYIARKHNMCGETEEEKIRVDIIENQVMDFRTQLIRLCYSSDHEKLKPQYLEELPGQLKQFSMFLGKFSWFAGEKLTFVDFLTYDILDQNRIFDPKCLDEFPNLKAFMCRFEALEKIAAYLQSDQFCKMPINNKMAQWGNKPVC
Sequence of Cytochrome P450 2C19 (P33261 whole entry, canonical isoform): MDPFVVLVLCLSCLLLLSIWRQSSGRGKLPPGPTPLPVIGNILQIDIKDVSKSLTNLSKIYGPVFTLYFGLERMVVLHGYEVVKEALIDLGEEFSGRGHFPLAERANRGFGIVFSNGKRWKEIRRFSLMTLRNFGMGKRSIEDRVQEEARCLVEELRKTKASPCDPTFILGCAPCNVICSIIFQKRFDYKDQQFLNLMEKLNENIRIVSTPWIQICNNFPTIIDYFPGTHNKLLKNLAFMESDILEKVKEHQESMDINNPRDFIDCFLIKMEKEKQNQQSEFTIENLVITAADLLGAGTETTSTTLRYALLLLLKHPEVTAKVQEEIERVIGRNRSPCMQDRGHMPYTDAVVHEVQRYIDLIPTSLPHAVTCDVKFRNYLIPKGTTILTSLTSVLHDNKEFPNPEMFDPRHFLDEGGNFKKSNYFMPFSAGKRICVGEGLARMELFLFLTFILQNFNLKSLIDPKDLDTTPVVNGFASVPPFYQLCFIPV

For `CCC1(c2ccccc2)C(=O)NC(=O)NC1=O` [PHENOBARBITAL], the Activity result in data set [1] was “indirect activator”; in [2], “indirect activator”; on Cytochrome P450 2B6 it was “Inducer”; at Cytochrome P450 2C8, “Inducer”; on Cytochrome P450 2C9, “Inducer”; on Cytochrome P450 2C19, “Inducer”.
As for `CCCCC[C@H](O)/C=C/[C@H]1C2CC(OO2)[C@@H]1C/C=C\CCCC(=O)O` (stereo not given in full), the Activity result (in [3]; in data set [4]; in [5]; on Prostaglandin E synthase) was “Substrate” throughout.
